# Laboratory results from patent US12427134B2, “Methods of reducing the risk of cardiovascular events in a subject with atrial fibrillation and/or atrial flutter” (priority 2019, dated 2025).
# Tests used:
# Type in all cases: in vivo, human
# [1] = test system: hypertriglyceridemic patients with cardiovascular disease or at high risk for cardiovascular disease; assay: REDUCE-IT: fasting lipid, lipoprotein and inflammatory biomarkers and serum EPA, change from baseline; settings: for Approximated LDL-C (Hopkins), median difference from placebo in percent change from baseline: Hodges-Lehmann estimate
# Protocol: Fasting Lipid Profile: The fasting lipid panel included: TG, TC, LDL-C, HDL-C, non-HDL-C, and VLDL-C. At all visits, LDL-C was calculated using the Friedewald equation. At Visit 1 and Visit 1.1 direct LDL-C were used if at the same visit TG >400 mg/dL (4.52 mmol/L). These LDL-C values were used for the evaluation of the LDL-C inclusion criterion (LDL-C qualifying measurements for randomization) and for the assessment of changes in the statin therapy when LDL-C was not at goal. […] In addition, irrespective of the TG levels, at Visit 2 (0 Months of Follow-up, baseline) and at Visit 4 (12 Months of Follow-up), LDL-C were measured by preparative ultracentrifugation. These preparative ultracentrifugation LDL-C measurements were used in the statistical analysis including the calculation of the percent change from baseline (1 year versus baseline). Hopkins LDL-C was calculated for each visit.
# Biomarkers Assays: The biomarker assays included: hsCRP, Apo B and hsTnT.
# The fasting lipid panel was tested at Screening (Visit 1 or Visit 1.1), Randomization visit (Visit 2; Day 0), Visit 3 (Day 120; ˜4 Months) and all other follow-up visits including the last visit. For change from baseline to 1 year preparative ultracentrifugation measurements for LDL-C were analyzed, unless this value was missing. If the LDL-C preparative ultracentrifugation values were missing, then another LDL-C value was used, with prioritization of values obtained from LDL-C Direct measurements, followed by LDL-C derived by the Friedewald calculation (only for subjects with TG <400 mg/dL), and finally LDL-C derived using the calculation published by Hopkins University investigators (Martin S S, Blaha M J, Elshazly M B, et al. Comparison of a novel method vs the Friedewald equation for estimating low-density lipoprotein cholesterol levels from the standard lipid profile. JAMA. 2013; 310:2061-8.). In addition, change from baseline to day 120 in LDL-C utilizing Friedewald's and Hopkins methods was analyzed, using the arithmetic mean of LDL-C obtained at Visit 2 (Day 0) and the preceding Visit 1 (or Visit 1.1). If one of these values was missing, the single available LDL-C value was used. LDL-C according to Hopkins was calculated at each visit.
# The randomization visit was considered Baseline. If a baseline value was not available from the randomization visit, then the latest screening value was used. For measurements of lipids, lipoproteins and inflammatory markers, the change and the percent change were summarized at each visit. Since these biomarkers are typically not normally distributed, the Wilcoxon rank-sum test was used for treatment comparisons of the percent change from baseline, and medians and quartiles were provided for each treatment group. The medians of the differences between the treatment groups and 95% CIs were estimated with the Hodges-Lehmann method. In addition, shift-tables were generated as appropriate.
# [2] = test system: hypertriglyceridemic patients with cardiovascular disease or at high risk for cardiovascular disease; assay: REDUCE-IT: post hoc control group response analyses (placebo patients with biomarker increase vs no change/decrease)
# Description: The objective of the following example was to perform a control group analysis of the ischemic events in patients from the REDUCE-IT trial, as described in Example 1. The study focused on exploring if outcomes were affected by possible malabsorption. If mineral oil in the placebo might have negatively affected statin absorption in some patients, this could have contributed to differences in outcomes between the groups.
# [3] = test system: hypertriglyceridemic patients with cardiovascular disease or at high risk for cardiovascular disease; assay: REDUCE-IT: post hoc analyses of primary + risk and key secondary + risk composite endpoints (adding atrial fibrillation/flutter and bleeding); settings: ITT
# [4] = Last Visit, vs placebo, ITT population
# [5] = baseline to the last study value
smiles,measurement,setting,value
"CC/C=C\C/C=C\C/C=C\C/C=C\C/C=C\CCCC(=O)OCC [AMR101, eicosapentaenoic acid ethyl ester]",Apo B Median Observed Value,"[1]; Baseline, ITT population",82.0 mg/dL
same,LDL-C Hopkins Median Observed Value,"[1]; Baseline, ITT population",85.8 mg/dL
same,LDL-C derived Median Observed Value,"[1]; Baseline, ITT population",74.0
same,Non-HDL-C Median Observed Value,"[1]; Baseline, ITT population",118.0 mg/dL
same,Triglycerides Median Observed Value,"[1]; Baseline, ITT population",216.5 mg/dL
same,hsCRP Median Observed Value,"[1]; Baseline, ITT population",2.2 mg/L
same,LDL-C derived Median Observed Value,"[1]; Last Visit, ITT population",77.0
same,Triglycerides Median Absolute Change from Baseline,"[1]; Last Visit, ITT population",45.0 mg/dL
same,LDL-C derived Between Group Difference Median % Change from Baseline,[1]; [4],−6.6%
same,LDL-C derived Between Group Difference Median Absolute Change from Baseline,[1]; [4],−5.0
same,"HDL-C, median",[1]; Year 1,39.0 mg/dL
same,"LDL-C, median",[1]; Year 1,77.0 mg/dL
same,"HDL-C, median between group difference, % change from baseline","[1]; Year 1, vs placebo",−6.3%
same,"HDL-C, median between group difference, absolute change from baseline","[1]; Year 1, vs placebo",-2.5 mg/dL
same,"LDL-C, median between group difference, % change from baseline","[1]; Year 1, vs placebo",−6.6%
same,"LDL-C, median between group difference, absolute change from baseline","[1]; Year 1, vs placebo",-5.0 mg/dL
same,Triglycerides Between Group Difference Median Absolute Change from Baseline,"[1]; Year 1, vs placebo, ITT population",44.5 mg/dL
same,Non-HDL-C Median Observed Value,"[1]; Year 2, ITT population",113.0 mg/dL
same,Triglycerides Between Group Difference Median % Change from Baseline,"[1]; Year 2, vs placebo, ITT population",−19.7%
same,HDL-C Median Observed Value,"[1]; Year 3, ITT population",40.0 mg/dL
same,Non-HDL-C Median Absolute Change from Baseline,"[1]; Year 3, ITT population",4.8 mg/dL
same,Non-HDL-C Median % Change from Baseline,"[1]; Year 4, ITT population",4.2%
same,Non-HDL-C Median % Change from Baseline,"[1]; Year 5, ITT population",4.4%
same,"Approximated LDL-C (Hopkins), median change from baseline",[1]; baseline to one year,-1.1 mg/dL
same,"Approximated LDL-C (Hopkins), median percent change from baseline",[1]; baseline to one year,−1.2%
same,"Triglycerides, median change from baseline",[1]; baseline to one year,-39.0 mg/dL
same,"Triglycerides, median percent change from baseline",[1]; baseline to one year,−18.3%
same,"Approximated LDL-C (Hopkins), median change from baseline",[1]; [5],-1.0 mg/dL
same,"Approximated LDL-C (Hopkins), median percent change from baseline",[1]; [5],−1.2%
same,"Triglycerides, median change from baseline",[1]; [5],-45.0 mg/dL
same,"Triglycerides, median percent change from baseline",[1]; [5],−21.6%
same,"Approximated LDL-C (Hopkins), median difference from placebo in percent change from baseline",[1]; last study value,−7.4%
same,"Triglycerides, greater reduction than in the placebo group",[1]; one year,44.5 mg/dL
same,"Triglycerides, median reduction from baseline greater than in the placebo group","[1]; one year, Hodges-Lehmann approach",19.7%
same,"Approximated LDL-C (Hopkins), median difference from placebo in percent change from baseline",[1]; one year,−11.4%
same,"Key secondary endpoint, HR AMR101 group versus placebo patients with an increase in LDL-C",[2]; LDL-C at one year,0.80
same,"Key secondary endpoint, HR AMR101 group versus placebo patients with no change or a decrease in LDL-C",[2]; LDL-C at one year,0.74
same,"Primary endpoint, HR AMR101 group versus placebo patients with an increase in LDL-C",[2]; LDL-C at one year,0.79
same,"Primary endpoint, HR AMR101 group versus placebo patients with no change or a decrease in LDL-C",[2]; LDL-C at one year,0.79
same,"Key secondary endpoint, HR AMR101 group versus placebo patients with an increase in hsCRP",[2]; hsCRP at two years,0.83
same,"Key secondary endpoint, HR AMR101 group versus placebo patients with no change or a decrease in hsCRP",[2]; hsCRP at two years,0.85
same,"Primary endpoint, HR AMR101 group versus placebo patients with an increase in hsCRP",[2]; hsCRP at two years,0.79
same,"Primary endpoint, HR AMR101 group versus placebo patients with no change or a decrease in hsCRP",[2]; hsCRP at two years,0.83
same,"AFib/AFlutter + MI + Stroke + Cardiac Arrest + Sudden Cardiac Death, Rate/1000 pt yrs",[3],29.4 /1000 pt yrs
same,"Key Secondary + AFib/AFlutter, Rate/1000 pt yrs",[3],33.1 /1000 pt yrs
same,"Key Secondary + Serious Bleeding, Rate/1000 pt yrs",[3],32.1 /1000 pt yrs
same,"Primary + AFib/AFlutter + Serious Bleeding, Rate/1000 pt yrs",[3],53.5 /1000 pt yrs
same,"Primary + AFib/AFlutter, Rate/1000 pt yrs",[3],49.0 /1000 pt yrs
same,"Primary + Serious Bleeding, Rate/1000 pt yrs",[3],48.2 /1000 pt yrs
same,"AFib/AFlutter + MI + Stroke + Cardiac Arrest + Sudden Cardiac Death, subjects with event",[3]; N = 4089,491
same,"AFib/AFlutter + MI + Stroke + Cardiac Arrest + Sudden Cardiac Death, subjects with event (%)",[3]; N = 4089,12.0%
same,"Key Secondary + AFib/AFlutter + Serious Bleeding, subjects with event",[3]; N = 4089,625
same,"Key Secondary + AFib/AFlutter, subjects with event",[3]; N = 4089,552
same,"Key Secondary + AFib/AFlutter, subjects with event (%)",[3]; N = 4089,13.5%
same,"Key Secondary + Serious Bleeding, subjects with event",[3]; N = 4089,539
same,"Key Secondary + Serious Bleeding, subjects with event (%)",[3]; N = 4089,13.2%
same,"Primary + AFib/AFlutter + Serious Bleeding, subjects with event",[3]; N = 4089,850
same,"Primary + AFib/AFlutter + Serious Bleeding, subjects with event (%)",[3]; N = 4089,20.8%
same,"Primary + AFib/AFlutter, subjects with event",[3]; N = 4089,785
same,"Primary + AFib/AFlutter, subjects with event (%)",[3]; N = 4089,19.2%
same,"Primary + Serious Bleeding, subjects with event",[3]; N = 4089,775
same,"Primary + Serious Bleeding, subjects with event (%)",[3]; N = 4089,19.0%
same,"AFib/AFlutter + MI + Stroke + Cardiac Arrest + Sudden Cardiac Death, HR (95% CI)",[3]; vs placebo,"0.789 (0.701, 0.889)"
same,"Key Secondary + AFib/AFlutter + Serious Bleeding, HR (95% CI)",[3]; vs placebo,"0.855 (0.768, 0.952)"
same,"Key Secondary + AFib/AFlutter, HR (95% CI)",[3]; vs placebo,"0.818 (0.731, 0.916)"
same,"Key Secondary + Serious Bleeding, HR (95% CI)",[3]; vs placebo,"0.789 (0.704, 0.884)"
same,"Primary + AFib/AFlutter + Serious Bleeding, HR (95% CI)",[3]; vs placebo,"0.830 (0.757, 0.910)"
same,"Primary + AFib/AFlutter, HR (95% CI)",[3]; vs placebo,"0.803 (0.731, 0.883)"
same,"Primary + Serious Bleeding, HR (95% CI)",[3]; vs placebo,"0.785 (0.714, 0.863)"
